These results are taken from ChEMBL document CHEMBL1149398, “Pyrrolizidine esters and amides as 5-HT4 receptor agonists and antagonists” (J Med Chem, 2006).

pEC50, pIC50, pKi: −log10 of the molar value.

Series [1] can be described thus: Binding affinity to 5HT1 receptor.
Series [2] concerns the target T1, Adrenergic receptor alpha-1 (Homo sapiens, UniProt P35348+P25100+P35368).
T1 sequence (P35348 whole entry): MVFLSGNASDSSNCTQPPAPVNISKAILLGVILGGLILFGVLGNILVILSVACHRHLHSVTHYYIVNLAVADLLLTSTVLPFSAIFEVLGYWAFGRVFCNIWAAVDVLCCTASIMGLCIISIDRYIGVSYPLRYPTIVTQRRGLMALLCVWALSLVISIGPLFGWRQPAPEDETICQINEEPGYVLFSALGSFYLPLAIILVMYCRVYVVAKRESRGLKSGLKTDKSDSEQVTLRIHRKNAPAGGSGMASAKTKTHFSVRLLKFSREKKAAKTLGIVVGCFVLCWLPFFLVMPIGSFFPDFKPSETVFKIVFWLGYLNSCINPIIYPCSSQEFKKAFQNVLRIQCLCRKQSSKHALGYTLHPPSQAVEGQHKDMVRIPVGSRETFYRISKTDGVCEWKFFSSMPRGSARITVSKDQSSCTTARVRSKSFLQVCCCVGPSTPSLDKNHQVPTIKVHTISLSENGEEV
T1 sequence (P25100 whole entry): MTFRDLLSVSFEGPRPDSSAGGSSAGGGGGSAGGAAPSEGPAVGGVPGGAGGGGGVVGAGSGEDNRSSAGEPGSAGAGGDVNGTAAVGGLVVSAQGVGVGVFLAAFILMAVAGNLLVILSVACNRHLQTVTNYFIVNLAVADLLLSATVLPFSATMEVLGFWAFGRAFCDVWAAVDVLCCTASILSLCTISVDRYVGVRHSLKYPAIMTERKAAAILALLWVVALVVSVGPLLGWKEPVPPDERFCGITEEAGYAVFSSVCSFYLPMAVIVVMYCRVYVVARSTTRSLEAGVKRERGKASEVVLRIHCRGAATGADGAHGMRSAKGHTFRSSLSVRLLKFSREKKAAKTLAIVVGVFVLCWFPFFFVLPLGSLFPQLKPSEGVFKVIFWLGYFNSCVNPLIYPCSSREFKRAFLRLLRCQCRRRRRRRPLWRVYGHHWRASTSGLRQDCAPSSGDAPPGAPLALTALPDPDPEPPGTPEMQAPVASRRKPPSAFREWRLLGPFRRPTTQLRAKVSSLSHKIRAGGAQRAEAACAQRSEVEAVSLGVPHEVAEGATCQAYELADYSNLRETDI
T1 sequence (P35368 whole entry): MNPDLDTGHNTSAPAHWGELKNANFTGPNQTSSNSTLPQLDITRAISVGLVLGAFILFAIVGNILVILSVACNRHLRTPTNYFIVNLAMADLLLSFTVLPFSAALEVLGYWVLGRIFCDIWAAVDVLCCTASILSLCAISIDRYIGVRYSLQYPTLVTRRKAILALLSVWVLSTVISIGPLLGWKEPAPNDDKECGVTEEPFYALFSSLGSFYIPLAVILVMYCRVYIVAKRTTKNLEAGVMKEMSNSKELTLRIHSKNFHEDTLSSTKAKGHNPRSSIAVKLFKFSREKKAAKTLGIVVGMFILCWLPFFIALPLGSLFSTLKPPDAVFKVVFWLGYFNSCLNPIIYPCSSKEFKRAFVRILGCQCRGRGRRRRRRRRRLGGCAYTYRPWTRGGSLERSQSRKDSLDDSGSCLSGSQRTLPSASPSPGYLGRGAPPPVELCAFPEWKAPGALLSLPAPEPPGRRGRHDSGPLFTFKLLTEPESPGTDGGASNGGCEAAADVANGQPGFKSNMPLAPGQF
In words: Binding affinity to adrenergic alpha-1 receptor. It counts as protein assay.

Series [3] has as its target Beta-2 adrenergic receptor (Homo sapiens, UniProt P07550). Kind of series: Binding affinity to adrenergic beta-2 receptor.
The target in series [4] is T2, 5-hydroxytryptamine receptor 4 (Rattus norvegicus, UniProt Q62758). In words: Agonism at 5HT4 receptor in rat tunica muscularis mucosa. The format is functional.
In series [5] the target is T3, Serotonin 3 receptor (5HT3) (Mus musculus) (UniProt Q9JHJ5+P23979). Kind of series: Antagonism at 5HT3 receptor in mice by von Bezold-Jarisch reflex inhibition at 3 mg/kg, ip. Details: dose 3 mg/kg; call rule not given here. It counts as functional, organism-based.
For series [6], the target named is T3, Serotonin 3 receptor (5HT3) (Mus musculus). In words: Antagonism at 5HT3 receptor in mice by von Bezold-Jarisch reflex inhibition at 1 mg/kg, ip. Details: dose 1 mg/kg. It counts as functional, organism-based.
For series [7], the system named is Salmonella typhi. Kind of series: Mutagenic activity in a GLP study using Salmonella Typhimurium TA1535 in presence of S9 fraction at 7.2-3600 ug/plate. The settings on record: salmonella enterica subsp. enterica […]. It counts as toxicity, organism-based.
Series [8] deals with Salmonella typhi. In words: Mutagenic activity in a GLP study using Salmonella Typhimurium TA100 in presence of S9 fraction at 7.2-3600 ug/plate. The settings on record: salmonella enterica subsp. enterica […]. The format is toxicity, organism-based.
Series [9] relates to Salmonella typhi. In words: Mutagenic activity in a GLP study using Salmonella Typhimurium TA1538 in presence of S9 fraction at 7.2-3600 ug/plate. The format is toxicity, organism-based. The settings on record: salmonella enterica subsp. enterica […].
Series [10] has as its system Salmonella typhi. In words: Mutagenic activity in a GLP study using Salmonella Typhimurium TA98 in presence of S9 fraction at 7.2-3600 ug/plate. The conditions noted are these: salmonella enterica subsp. enterica […]. The format is toxicity, organism-based.
The target of series [11] is T4, Serotonin 3 (5-HT3) receptor (Rattus norvegicus, UniProt P35563+Q9JJ16).
T4 sequence (P35563 whole entry): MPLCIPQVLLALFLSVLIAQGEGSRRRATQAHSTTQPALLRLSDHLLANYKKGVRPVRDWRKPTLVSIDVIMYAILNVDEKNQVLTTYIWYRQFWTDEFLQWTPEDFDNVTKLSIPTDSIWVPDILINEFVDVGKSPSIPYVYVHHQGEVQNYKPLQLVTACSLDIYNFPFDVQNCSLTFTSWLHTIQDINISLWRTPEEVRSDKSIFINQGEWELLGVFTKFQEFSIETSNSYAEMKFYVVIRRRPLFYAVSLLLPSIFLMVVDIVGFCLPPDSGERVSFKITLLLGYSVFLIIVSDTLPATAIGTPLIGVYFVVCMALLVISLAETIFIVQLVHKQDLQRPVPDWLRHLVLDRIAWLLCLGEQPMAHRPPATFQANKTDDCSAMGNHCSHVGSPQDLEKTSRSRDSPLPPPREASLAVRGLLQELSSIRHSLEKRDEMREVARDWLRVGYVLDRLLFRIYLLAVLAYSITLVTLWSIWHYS
T4 sequence (Q9JJ16 whole entry): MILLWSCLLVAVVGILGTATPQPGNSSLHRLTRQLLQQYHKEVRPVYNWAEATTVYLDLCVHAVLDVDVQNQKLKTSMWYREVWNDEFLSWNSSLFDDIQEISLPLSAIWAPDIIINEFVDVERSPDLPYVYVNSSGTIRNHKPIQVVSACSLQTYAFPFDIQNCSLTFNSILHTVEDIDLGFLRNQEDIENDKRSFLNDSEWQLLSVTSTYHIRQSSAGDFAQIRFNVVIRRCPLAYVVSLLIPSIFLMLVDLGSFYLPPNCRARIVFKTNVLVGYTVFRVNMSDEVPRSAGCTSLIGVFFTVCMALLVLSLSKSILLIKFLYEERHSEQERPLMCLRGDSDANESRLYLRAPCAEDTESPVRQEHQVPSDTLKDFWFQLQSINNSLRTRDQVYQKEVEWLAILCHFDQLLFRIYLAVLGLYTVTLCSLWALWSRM
In words: Displacement of [3H]GR65630 from 5HT3 receptor in brain cortex from Wistar rat. The format is tissue-based. (Displacement assays read how much labelled ligand stays bound in the presence of the test substance.)

Series [12] concerns the target T2, 5-hydroxytryptamine receptor 4. Kind of series: Antagonism at 5HT4 receptor in rat tunica muscularis mucosa. The format is functional, tissue-based. The conditions noted are these: read-out: pA2 (converted).

Chain of Beta-2 adrenergic receptor (P07550 whole entry): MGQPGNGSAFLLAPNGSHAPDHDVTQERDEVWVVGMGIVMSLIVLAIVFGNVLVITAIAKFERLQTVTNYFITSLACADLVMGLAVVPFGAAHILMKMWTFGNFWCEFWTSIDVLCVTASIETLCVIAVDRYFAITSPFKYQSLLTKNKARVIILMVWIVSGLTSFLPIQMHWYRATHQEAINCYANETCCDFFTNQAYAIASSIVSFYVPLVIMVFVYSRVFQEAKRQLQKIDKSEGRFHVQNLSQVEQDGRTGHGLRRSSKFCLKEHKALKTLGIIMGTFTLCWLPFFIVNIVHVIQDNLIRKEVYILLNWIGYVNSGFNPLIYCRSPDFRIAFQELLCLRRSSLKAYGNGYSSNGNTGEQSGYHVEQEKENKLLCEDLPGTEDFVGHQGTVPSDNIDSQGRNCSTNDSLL
T2 sequence (Q62758 whole entry): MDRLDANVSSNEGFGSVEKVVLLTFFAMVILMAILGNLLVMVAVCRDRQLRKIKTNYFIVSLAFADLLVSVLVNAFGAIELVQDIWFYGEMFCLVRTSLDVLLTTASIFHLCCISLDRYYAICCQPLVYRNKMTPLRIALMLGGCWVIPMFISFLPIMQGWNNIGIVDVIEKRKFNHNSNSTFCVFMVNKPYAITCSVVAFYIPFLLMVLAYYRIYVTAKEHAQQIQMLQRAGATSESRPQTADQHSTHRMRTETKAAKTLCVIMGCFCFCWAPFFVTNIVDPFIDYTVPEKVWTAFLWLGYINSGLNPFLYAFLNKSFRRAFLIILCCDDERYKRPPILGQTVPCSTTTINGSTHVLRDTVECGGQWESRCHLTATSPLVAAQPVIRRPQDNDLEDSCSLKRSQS
T3 sequence (P23979 whole entry, looked up): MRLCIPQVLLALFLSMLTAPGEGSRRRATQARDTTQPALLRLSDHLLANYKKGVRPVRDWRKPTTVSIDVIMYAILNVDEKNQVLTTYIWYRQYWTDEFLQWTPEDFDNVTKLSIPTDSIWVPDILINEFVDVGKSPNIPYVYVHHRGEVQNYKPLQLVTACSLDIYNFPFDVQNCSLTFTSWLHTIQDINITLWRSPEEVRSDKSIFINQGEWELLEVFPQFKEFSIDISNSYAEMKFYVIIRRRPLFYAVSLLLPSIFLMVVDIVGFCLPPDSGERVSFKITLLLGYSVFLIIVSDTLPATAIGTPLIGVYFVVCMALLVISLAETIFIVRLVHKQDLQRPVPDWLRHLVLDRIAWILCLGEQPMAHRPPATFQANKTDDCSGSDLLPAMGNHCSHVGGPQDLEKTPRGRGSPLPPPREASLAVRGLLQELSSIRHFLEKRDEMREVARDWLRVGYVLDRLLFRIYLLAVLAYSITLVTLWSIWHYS
T3 sequence (Q9JHJ5 whole entry, looked up): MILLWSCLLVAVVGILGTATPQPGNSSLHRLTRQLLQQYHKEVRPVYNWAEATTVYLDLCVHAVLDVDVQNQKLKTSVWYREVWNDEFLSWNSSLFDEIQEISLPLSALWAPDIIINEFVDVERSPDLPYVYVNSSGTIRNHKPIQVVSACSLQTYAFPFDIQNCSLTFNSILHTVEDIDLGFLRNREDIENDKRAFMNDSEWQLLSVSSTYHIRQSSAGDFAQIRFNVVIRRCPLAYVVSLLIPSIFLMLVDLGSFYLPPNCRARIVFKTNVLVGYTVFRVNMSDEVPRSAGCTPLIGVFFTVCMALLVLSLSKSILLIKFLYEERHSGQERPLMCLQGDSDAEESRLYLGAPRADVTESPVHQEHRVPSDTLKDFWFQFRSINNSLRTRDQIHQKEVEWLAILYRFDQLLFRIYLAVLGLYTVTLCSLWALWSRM

For `COc1cc(N)c(Cl)cc1C(=O)NC[C@@H]1CCN2CCC[C@@H]12`, the pIC50 in series [1] and in series [3] was < 5.00 each time. For the same compound, the IC50 in series [2] is on record as > 10000 nM. For the same compound, the pEC50 in [4] is 7.78. Also, the figures for the inhibition in [5] and in series [6] were 57% and 7%, respectively. In addition, the result in the series with Salmonella typhi [7], with Salmonella typhi [8], in the series on Salmonella typhi [9] and with Salmonella typhi [10] was Active.
`COc1cc(N)c(Cl)cc1C(=O)N[C@@H]1C2CC3CN(C2)CC31` (stereo not given in full): the pIC50 in series [1] and in series [3] was < 5.00 throughout. Further, in series [2], the half-inhibitory concentration (IC50) is > 10000 nM. This compound also gave a pKi in series [11] of 8.92.
On to `Cn1nc(C(=O)OC[C@@H]2CCN3CCC[C@@H]23)c2ccccc21` (single isomer, unassigned), for which the pIC50 in series [1] and in series [3] was < 5.00 throughout. In [2], the half-inhibitory concentration (IC50) is > 10000 nM. This compound showed a negative-log Ki (pKi) in series [11] of 7.70. Moreover, the Kb in series [12] was 2.75 nM.
In the case of `O=C(OC[C@@H]1CCN2CCC[C@@H]12)c1c[nH]c2ccccc12`, the pIC50 in series [1] and in series [3] was < 5.00 each time. Moreover, the IC50 in series [2] is > 10000 nM. In series [11], this compound had a pKi of 8.30. Besides, the Kb in series [12] is 1.17 nM.
In the case of `O=C(NC[C@@H]1CCN2CCC[C@@H]12)c1cc(Cl)cn2ccnc12`, the pIC50 in series [1] and in series [3] was < 5.00 throughout. Besides, the IC50 in series [2] was > 10000 nM. In addition, the pKi in [11] is 6.59. Also, in [4], the negative-log EC50 (pEC50) was < 5.00. In addition, the Kb in series [12] was 7.41 nM.
In the case of `O=C(OC[C@@H]1CCN2CCC[C@@H]12)c1[nH]nc2ccccc12` (single isomer, unassigned), the pIC50 in series [1] and in [3] was < 5.00 each time. In addition, the half-maximal inhibitory concentration (IC50) in series [2] is given as > 10000 nM. The pKi in series [11] was 6.87. For the same compound, in [12], the Kb is 3.31 nM.

What is called pIC50 is −log10 of the IC50, conventionally taken in molar units. A lower pIC50 goes with a high IC50. By IC50 is commonly meant the concentration that gives 50% inhibition. A low value points to greater potency in that assay. For orientation: pEC50 means the negative decadic logarithm of the EC50, by convention in mol/L. As a reminder, the inhibition is the percentage by which the read-out fell short of the control. For orientation: pKi means the negative decadic logarithm of the Ki, by convention in mol/L. Low readings indicate a high Ki, high ones a low Ki.
